IC50 and tumor growth suppression data for one compound are collected here from patent US20250152723A1, “ANTIBODY-DRUG CONJUGATES INVOLVING ERIANIN AND THE FABRICATION METHODS AND APPLICATIONS THEREOF” (Laboratory for Synthetic Chemistry and Chemical Biology …, priority 2023, published 2025).

The subject of test [1] is SK-OV-3 ovarian cancer cell (HER2+). Put plainly: In vitro anti-proliferative study (NBB staining, 6 days). The following applies: SK-OV-3 (HER2+), 6 days incubation, mean±SD. It is filed as cell-based, human. As to the method: (§1) Briefly, Different cell lines (1×10^3 cells/well) are seeded in a microtiter plate (96 well) and incubated overnight before the treatment. […] After the media is removed, the cells are fixed with formaldehyde (3%; 50 μL) in PBS and stained with NBB reagent (0.05%, 0.1 M sodium acetate, 9% acetic acid; 50 μL) for overnight. The stained cells in each well are washed thrice gently with deionized water and solubilized in sodium hydroxide solution (50 mM; 100 μL). The cell viability is determined by measuring the absorbance of 620 nm in each well by microplate reader. The experiments are repeated in triplicate. The IC50 values are presented as the mean±standard deviation.

For test [2], the system named is MCF-10A breast epithelial cell (HER2−). Described as above. Type of test: cell-based. The following applies: MCF-10A (HER2−), 6 days incubation, mean±SD. The method, then: as §1
In test [3] the test system is MDA-MB-231 breast cancer cell (HER2−). The test is described as above. It is filed as cell-based. The following applies: MDA-MB-231 (HER2−), 6 days incubation, mean±SD. The method, then:
as §1

Test [4] relates to SK-BR-3 breast cancer cell (HER2+). Described as above. The settings on record: SK-BR-3 (HER2+), 6 days incubation, mean±SD. Type of test: cell-based. The method, then:
as §1

The test system of test [5] is HER2-positive SK-OV-3 human ovarian cancer xenograft. The test is described as follows: Antitumor activity in SK-OV-3 xenograft model. The settings on record: 50 mg/kg intravenous, four doses (day 0, 4, 8, 12), compared to vehicle control. It is filed as in vivo, Female BALB/cAnN-nu (nude) mice.
Procedure: Female BALB/cAnN-nu (nude) mice (5-8 weeks old) are housed in the Laboratory Animal Unit, The University of Hong Kong. The mice are freely access to food and water. SKOV-3 ovarian cancer cells (1×10^7) in PBS (100 μL) are injected into the right flanks of each mouse subcutaneously. […] The mice are treated with intravenous administration of a total of four doses on day 0, 4, 8 and 12. The tumor size and body weight are monitored during the treatment. After 28 days, the mice are sacrificed and the tumor weight is measured.

What is called IC50 is the concentration that inhibits the measured activity by half. Low readings indicate greater potency, high ones weaker potency. `COc1ccc(CCc2cc(OC)c(OC)c(OC)c2)cc1O` [Erianin, erianin]: the IC50 worked out at 21.4 ± 0.3 nM in test [1], 25.7 ± 0.2 nM in test [2], 21.6 ± 0.2 nM in test [3] and 24.1 ± 0.1 nM in test [4]. Besides, in test [5], the tumor growth suppression entry is “no effect”.
